Measurements reported in patent US9241951B2, “Of gastrointestinal health, immunity and performance by dietary intervention” (BIOATLANTIS LTD, priority 2009, dated 2016).

Legend:
Assay in all cases: Cytokine gene expression in unchallenged ileum and colon tissue (qPCR), Example 5
Assay type in all cases: in vivo, pig
Details in all cases: unchallenged ileum or colon tissue; LAM 300, 600 ppm
IL-10 = tested on: IL-10
Method: (§1) 21 pigs with an initial weight of 17.9±2.2 Kg were assigned to one of the 3 dietary treatments: (T1) control; (T2) basal diet+300 ppm LAM; (T3) basal diet+600 ppm LAM. Experimental feeding continued for 21 days ad libitum. Diets were formulated to have similar digestible energy (DE) (14.4 MJ/Kg) and ileal digestible lysine (12.5 g/Kg).
(§2) Ileal and colonic tissues was stabilised in RNAlater® solution and stored overnight at 4° C. The following day, RNAlater® was removed and samples were stored at −86° C. prior to RNA extraction.
(§3) Tissue samples for RNA extraction were removed from −86° C. and homogenised. 500 μl of lysis solution/2-ME was added to each sample and these were mechanically disrupted using one 5 mm stainless steel bead per sample. These were then placed in a Tissue Lyser (Qiagen) and lysates were homogenised for 3 mins and transferred to a GenElute Filtration Column (Sigma Aldrich) and RNA was extracted. 1 µg of total RNA was used for cDNA synthesis using oligo(dT)20 primer in a final reaction volume of 20 μl with Superscript™ III First-Strand synthesis system for reverse transcriptase-polymerase chain reaction (RT-PCR) (Invitrogen Life Technologies, Carlsbad, Calif.). At the last step of cDNA synthesis, treatment with E. coli RNase H (Invitrogen Corp.) was performed to digest the remaining RNA/mRNA template, resulting in the production of the single-stranded cDNA template for subsequent qRT-PCR reactions.
(§4) All porcine primers for the cytokine genes interferon gamma (IFN-γ), interleukin-1α (IL-1α), IL-6, IL-8, IL-10, IL-17, tumour necrosis factor (TNF-α), the mucin genes (MUCs 1, 2, 4, 5AC, 12, 13 and 20) and three reference genes, β-actin (ACTB), Glyceraldehyde-3-phosphate dehydrogenase (GAPDH) and Peptidylprolyl isomerase A (PPIA), were designed using Primer Express™ (PE Applied Biosystems, Foster City, Calif.) and synthesised by MWG Biotech (Milton Keynes, UK). These reference genes were previously validated for use in porcine tissue and qPCR was then carried out on the cDNA using the ABI PRISM 7900HT Fast sequence detection system for 96-well plates (Applied Biosystems, Foster City, Calif.). All samples were prepared in duplicate using SYBR Green Fast PCR Master Mix (Applied Biosystems, Foster City, Calif.), cDNA as template and specific primers for the genes selected. For each reaction 5 μl cDNA, 1.2 μl (forward and reverse primer mix, 5 μM), 10 μl Fast SYBR Green PCR Master Mix (PE Applied Biosystems, Foster City, Calif.) was added and made up to a final volume of 20 μl. The two step PCR program was as follows: 95° C. for 10 minutes for 1 cycle followed by 95° C. for 15 seconds and 60° C. for 1 minute for 40 cycles. The raw Ct values for the reference genes were converted to relative quantities using the formula Q=E ^ΔCt where E is the PCR efficiency of the assay and ^ΔCt is the value calculated for the difference between the lowest Ct value for each gene minus the Ct value of the sample in question. The relative quantities of the endogenous controls were then analysed for stability in geNorm (Vandesompele et al., 2002). The stability ‘M’ value generated by the geNorm application for the selected endogenous controls (ACTB, GAPDH and PPIA) indicated their suitability as endogenous controls for these intestinal samples. The geometric mean of the relative quantities for ACTB, GAPDH and PPIA (normalisation factor) was then calculated using geNorm. The relative quantities of each target gene were divided by the normalisation factor (obtained in geNorm) for that sample to give the final normalised relative expression.

TNF-α = tested on: TNF-α
Method: as §1, §2, §3, §4

IL-8 = tested on: IL-8
Method: as §1, §2, §3, §4

IFN-γ = tested on: IFN-γ
Method: as §1, §2, §3, §4

IL-17 = tested on: IL-17
Method: as §1, §2, §3, §4

laminarin
no effects: IL-10 gene expression (IL-10) | TNF-α gene expression (TNF-α) | IL-8 gene expression (IL-8) | IFN-γ gene expression (IFN-γ) | IL-17 gene expression (IL-17)
